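Method: 48-hour compound exposure of cells in 96-well plates, five concentrations, linear interpolation of endpoints. The concentration for 50% growth inhibition is given as GI50.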 Activity calls are given as the source filed them. Rule as the data show it: active = GI50 up to about 1.1 µM and inactive = higher.
What was measured:
Experiment in all cases: NCI-60 cell line screen, 48 h
[1] = tested on: ACHN
[2] = tested on: CCRF-CEM
[3] = tested on: DU-145
[4] = tested on: EKVX
[5] = tested on: HT-29
[6] = tested on: Hs-578T
[7] = tested on: IGROV-1
[8] = tested on: KM12
[9] = tested on: LOX IMVI
[10] = tested on: MCF7
[11] = tested on: NCI-H23
[12] = tested on: OVCAR-5
[13] = tested on: SF-268
[14] = tested on: SF-295
[15] = tested on: SF-539
[16] = tested on: SK-MEL-5
[17] = tested on: SNB-75
[18] = tested on: SW-620
[19] = tested on: T47D
[20] = tested on: UACC-62

Compound	GI50 [1]	GI50 [2]	GI50 [3]	GI50 [4]	GI50 [5]	GI50 [6]	GI50 [7]	GI50 [8]	GI50 [9]	GI50 [10]	GI50 [11]	GI50 [12]	GI50 [13]	GI50 [14]	GI50 [15]	GI50 [16]	GI50 [17]	GI50 [18]	GI50 [19]	GI50 [20]
COc1ccc(-c2nc(N)c3ncn(C4OC(CO)C(O)C4O)c3n2)cc1 (stereo not given)	> 100 µM (inactive)	> 100 µM (inactive)	> 100 µM (inactive)	> 100 µM (inactive)	> 100 µM (inactive)	> 100 µM (inactive)	> 100 µM (inactive)	> 100 µM (inactive)	> 100 µM (inactive)	> 100 µM (inactive)	> 100 µM (inactive)	> 100 µM (inactive)	> 100 µM (inactive)	> 100 µM (inactive)	> 100 µM (inactive)	> 100 µM (inactive)	> 100 µM (inactive)	> 100 µM (inactive)	> 100 µM (inactive)	> 100 µM (inactive)
CC(C)=CCC[C@@H](C)C1=C(O)C(O)C(C)=C2N=C(c3ccccc3)C(=O)OC21 (stereo not given in full)	2.16 µM (inactive)	2.4 µM (inactive)	4.36 µM (inactive)	8.85 µM (inactive)	6.81 µM (inactive)	1.87 µM (inactive)	1.22 µM (inactive)	4.44 µM (inactive)	4.71 µM (inactive)	1.21 µM (inactive)	0.726 µM (active)	18.1 µM (inactive)	1.53 µM (inactive)	2.42 µM (inactive)	4.33 µM (inactive)	1.29 µM (inactive)	3.7 µM (inactive)	3.16 µM (inactive)	1.21 µM (inactive)	1.07 µM (active)
CCNC(=S)NNC(=O)CSc1nc2ccc(I)cc2c(=O)n1Cc1ccccc1	5.74 µM (inactive)	7.98 µM (inactive)	> 79.4 µM (inactive)	15.8 µM (inactive)	18.1 µM (inactive)	29.7 µM (inactive)	14.6 µM (inactive)	8.77 µM (inactive)	34.9 µM (inactive)	16.9 µM (inactive)	21.6 µM (inactive)	> 100 µM (inactive)	31.9 µM (inactive)	25.4 µM (inactive)	45.8 µM (inactive)	8.65 µM (inactive)	> 85.7 µM (inactive)	37.8 µM (inactive)	5.27 µM (inactive)	> 27.6 µM (inactive)
OC(C1CCCCCCCCCC1)C(O)C1CCCCCCCCCC1 (stereo not given)	> 100 µM (inactive)	> 100 µM (inactive)	> 100 µM (inactive)	> 100 µM (inactive)	> 100 µM (inactive)	> 100 µM (inactive)	> 100 µM (inactive)	> 100 µM (inactive)	> 100 µM (inactive)	> 100 µM (inactive)	43.2 µM (inactive)	> 100 µM (inactive)	> 100 µM (inactive)	> 100 µM (inactive)	> 100 µM (inactive)	> 100 µM (inactive)	> 100 µM (inactive)	> 100 µM (inactive)	> 100 µM (inactive)	> 100 µM (inactive)
O=C1/C(=C/c2ccc(O)cc2)CC/C1=C\c1ccc(O)cc1	6.31 µM (inactive)	1.52 µM (inactive)	> 100 µM (inactive)	99.8 µM (inactive)	> 100 µM (inactive)	> 100 µM (inactive)	> 100 µM (inactive)	> 100 µM (inactive)	> 100 µM (inactive)	> 100 µM (inactive)	> 100 µM (inactive)	> 100 µM (inactive)	> 95.1 µM (inactive)	> 96.4 µM (inactive)	22.6 µM (inactive)	> 100 µM (inactive)	> 100 µM (inactive)	> 100 µM (inactive)	> 95.1 µM (inactive)	13.3 µM (inactive)
O=C(O)c1cc(-c2ccc(-c3ccccc3)cc2)nc2cc3ccccc3cc12	46.6 µM (inactive)	5.21 µM (inactive)	66.8 µM (inactive)	57.1 µM (inactive)	38 µM (inactive)	32.3 µM (inactive)	26.4 µM (inactive)	34.3 µM (inactive)	66.7 µM (inactive)	> 100 µM (inactive)	36.8 µM (inactive)	> 100 µM (inactive)	35.2 µM (inactive)	34.8 µM (inactive)	31.2 µM (inactive)	26.4 µM (inactive)	29.2 µM (inactive)	40.4 µM (inactive)	49.5 µM (inactive)	25.5 µM (inactive)
O=C(c1ccccc1)n1cc(-c2ccccc2)c2c(=O)nc[nH]c21	> 100 µM (inactive)	> 100 µM (inactive)	> 100 µM (inactive)	> 100 µM (inactive)	> 100 µM (inactive)	> 100 µM (inactive)	> 100 µM (inactive)	> 100 µM (inactive)	> 100 µM (inactive)	> 100 µM (inactive)	> 100 µM (inactive)	> 100 µM (inactive)	> 100 µM (inactive)	> 100 µM (inactive)	> 100 µM (inactive)	> 100 µM (inactive)	17.4 µM (inactive)	> 100 µM (inactive)	> 100 µM (inactive)	> 100 µM (inactive)

From ChEMBL document CHEMBL1201862, “PubChem BioAssay data set” (2004)
